Test results as given in US20030103863A1, “High pressure sterilising of sensitive active principles” (priority 2000, published 2003).

What was measured:
[1] = HPLC purity after high pressure treatment; format: physicochemical; details: powder, high pressure treatment at 5,000 bars
Procedure: Complementary tests were conducted to show the harmlessness of the treatment by high pressure on the fragile elements. In this case, these elements were placed in solution or in the form of powder.
a) The peptide, in this case Gramicidin, is subjected to a high pressure treatment at 5,000 bars, and its purity was also tested by HPLC, the variations remaining less than 1%. The high pressures have no influence on the structure.

[2] = HPLC chromatography of insulin after high pressure treatment; format: physicochemical; details: 4,000, 5,000 and 6,000 bars for 10 minutes, ambient temperature and −20° C.; analyzed at 214 nm
Procedure: b) Insulin was selected at 40 UI, commercial form, and diluted to {fraction (1/100 )} at pH 2.5. For the measurement, passage is carried out with a flow rate of 1 ml/min in an HPLC (High Pressure Liquid Chromatography) apparatus.
Different specimens were subjected, at ambient temperature and at a negative temperature of −20° C., to:
atmospheric pressure for the standard,
5,000 bars for 10 minutes, and
The specimens, after treatment, are then analyzed at 214 nm in a chromatographic apparatus with automatic injection.

Substance	variations of purity by HPLC [1]	modifications or alterations of the structure (HPLC curves vs standard at atmospheric pressure) [2]
gramicidin	less than 1%	
insulin		no noticeable modifications or alterations
